Experimental data as given in PubChem BioAssay AID1996.
In brackets after ≈: the same amount, converted by molar mass.

Conditions: buffer; pH 7.4; 200.0 µM

SMILES | solubility kinetic
CCOC(=O)c1cc2c(nc1N)CCCC2 | 24.7 µg/mL (≈ 112 µM)
Cc1cc(C(=O)NC(=S)Nc2cccc(C(=O)O)c2C)ccc1[N+](=O)[O-] | > 56 µg/mL
O=C(O)/C=C/c1cccc(NC(=O)Nc2ccc([N+](=O)[O-])cc2)c1 | > 49.1 µg/mL
Cc1ccc(CNc2ccc3c(c2)ncn3C(C)C)cc1 | > 41.9 µg/mL
CN(C)c1nc2c(c(=O)[nH]c(=O)n2C)n1CCCc1ccccc1 | > 49.1 µg/mL
O=C(O)/C=C/C(=O)Nc1ccc(OC(F)(F)F)cc1 | 38.8 µg/mL (≈ 141 µM)
CN(C(=O)c1cccc(NC(=O)c2ccco2)c1)c1ccccc1 | > 48.1 µg/mL
O=[N+]([O-])c1c(NCCO)cc(N2CCCCC2)c2nonc12 | 38.6 µg/mL (≈ 126 µM)
Cc1nc2c(=O)n(-c3ccc(F)cc3F)nc(C)c2s1 | > 44 µg/mL
CC[N+](CC)(CC#CCO)CC#Cc1ccccc1.[Br-] | 44.2 µg/mL
CC(C)(CNC(=O)c1ccccc1F)CNC(=O)c1ccccc1F | 51.6 µg/mL (≈ 149 µM)
Cc1nc(NC(=O)C2CC2)sc1C(=O)Nc1ccccc1 | 3.8 µg/mL (≈ 12.6 µM)
N#Cc1c(-c2ccc(Cl)cc2)c2c([nH]c1=O)-c1ccccc1OC2 | 7.6 µg/mL (≈ 22.7 µM)
Cc1ccc(-n2sc3ccccc3c2=O)cc1 | 9.2 µg/mL (≈ 38.1 µM)
CC1CC(C)CN(C(=O)COC(=O)c2nccnc2N)C1 (stereo not given) | > 43.9 µg/mL
OCCN1CCN(CC(O)C(F)(F)F)CC1 (stereo not given) | > 36.3 µg/mL
O=C(CNS(=O)(=O)c1ccc(F)cc1)N1CCOCC1 | > 45.3 µg/mL
Cc1cccc(N2CCN(C(=O)c3ccccn3)CC2C)c1 (stereo not given) | > 44.3 µg/mL
COc1ccc(C(=O)ON=C2CCN(C)CC2)cc1.Cl | > 44.8 µg/mL
COc1ccc(NC(=S)/N=C(\N)Nc2nc(C)c3ccccc3n2)cc1 | 0.7 µg/mL (≈ 1.91 µM)
COc1ccc(Oc2ccc(C(F)(F)F)cc2N)cc1 | 5.3 µg/mL (≈ 18.7 µM)
CC(Oc1ccc(Br)cc1Br)C(=O)Nc1cccnc1 (stereo not given) | 7.2 µg/mL (≈ 18 µM)

SMILES | solubility kinetic
CC(=O)Nc1ccc(N2C(=O)CSC2c2ccccc2)cc1 (stereo not given) | > 46.9 µg/mL
Cn1c(=O)c2c(nc(Sc3ccccc3N)n2C)n(C)c1=O | 39.1 µg/mL (≈ 123 µM)
O=C(O)c1cccc(N=C2NC(=O)C(CO)(CO)S2)c1 | > 44.4 µg/mL
COc1ccc(OC)c(N/C(=N/c2nc(C)cc(C)n2)NC(C)=O)c1 | 0.6 µg/mL (≈ 1.75 µM)
CC(NC(=O)C12CC3CC(C)(CC(C)(C3)C1)C2)c1ccncc1 (stereo not given) | 41.9 µg/mL (≈ 134 µM)
CCOc1ccccc1NC(=O)NCCCCc1ccccc1 | < 0.3 µg/mL
CCC(=O)Nc1cc(OC)cc(OC)c1 | > 31.4 µg/mL
Cc1cc(OCC(O)CN2CCCC2)ccc1C(C)C.Cl (stereo not given) | 39.1 µg/mL
COc1ccc(NC(=O)c2ccc(N3CCOCC3)nc2)cc1 | 6.3 µg/mL (≈ 20.1 µM)
CCCCC(CC)COCCCN=Cc1c(O)[nH]c(=S)[nH]c1=O (stereo not given) | 4.1 µg/mL (≈ 12 µM)
COc1cc(OC)c(C(=O)Nc2cccc3ccccc23)cc1OC | < 0.7 µg/mL
CN(C)S(=O)(=O)c1ccc(N2CCCC2)c(C(=O)Nc2nccs2)c1 | 51.6 µg/mL (≈ 136 µM)
CC(C)=CC1C(C(=O)NCCOc2ccccc2)C1(C)C (stereo not given) | 17.7 µg/mL (≈ 61.6 µM)
Cc1noc(C)c1S(=O)(=O)N1CCC(C(N)=O)CC1 | > 43.1 µg/mL
CC(=O)c1cccc(NC(=O)c2cc(-c3cccs3)on2)c1 | < 0.3 µg/mL
CC(C)CNC(=O)[C@@H]1CSC2c3ccccc3C(=O)N21 (stereo not given in full) | > 43.6 µg/mL
Cc1cccc(CSCc2ccc(C(=O)NCC3CCCO3)o2)c1 (stereo not given) | 46.6 µg/mL (≈ 135 µM)
CC(C)N(Cc1ccccc1)C(=O)COC(=O)c1ccc(S(=O)(=O)N2CCOCC2)cc1 | 3.1 µg/mL (≈ 6.73 µM)
Cc1cc(S(=O)(=O)NCCCn2ccnc2)c(C)cc1Cl | > 49.2 µg/mL
COc1ccc(OC)c(NC(=O)COC(=O)CCCN=C2NS(=O)(=O)c3ccccc32)c1 | 6.4 µg/mL (≈ 13.9 µM)
COc1ccc(NC(=O)c2ccccc2Oc2ccccc2)cc1 | < 0.7 µg/mL
CC(=O)Nc1ccc(N/C=C2/CCCC2=O)cc1 | > 36.6 µg/mL

SMILES | solubility kinetic
Cc1cccc(N2CCN(C(=O)[C@H](C)N3C(=O)C4CC=CCC4C3=O)CC2)c1C (stereo not given in full) | > 59.3 µg/mL
O=C(CCCn1cnc([N+](=O)[O-])n1)Nc1cc(Cl)ccc1O | > 48.9 µg/mL
N#C/C(=C\c1cccnc1)C(=O)Nc1ccc(Cl)cc1 | 5.7 µg/mL (≈ 20.1 µM)
Cc1ccc(CNC(=O)c2ccc(C)s2)cc1 | 19.2 µg/mL (≈ 78.3 µM)
O=C(Nc1ccccc1F)C1COc2ccccc2O1 (stereo not given) | 25.6 µg/mL (≈ 93.7 µM)
c1ccc(Nc2cccc3ccccc23)cc1 | 1.5 µg/mL (≈ 6.84 µM)
CC1(C)C2SCC(=O)N2CCN1CC(=O)NN (stereo not given) | > 38.8 µg/mL
COC(=O)/C=C1/SC(=NC(=O)c2ccc(F)cc2)NC1=O | > 46.2 µg/mL
COc1ccccc1C(=O)Nc1ccc(NC(=O)c2ccco2)cn1 | 0.7 µg/mL (≈ 2.08 µM)
COCCNC(=O)C(OC(=O)C1=Cc2ccccc2OC1)C(C)C (stereo not given) | > 50 µg/mL
Cc1sc2ncnc(SCC(=O)Nc3cccc(S(N)(=O)=O)c3)c2c1C | 5.3 µg/mL (≈ 13 µM)
COc1ccccc1OCCNC(=O)Nc1cc(F)c(F)cc1Cl | 0.7 µg/mL (≈ 1.96 µM)
O=C(NCc1ccc(F)cc1)c1cc2ccccc2o1 | 34.9 µg/mL (≈ 130 µM)
CCOC(=O)N1CCc2[nH]c3ccc(C)cc3c2C1 | 15.9 µg/mL (≈ 61.6 µM)
CCN(CC)S(=O)(=O)c1ccc(/C=C/C(=O)OCC(=O)NC(=O)C2COc3ccccc3O2)cc1 (stereo not given) | 21 µg/mL (≈ 41.8 µM)
CC(=O)N1NC(=Nc2ccccc2)SC1(C)C | > 37.4 µg/mL
CCOC(=O)c1cc(-c2c(Cl)cccc2Cl)no1 | 12.1 µg/mL (≈ 42.3 µM)
CCOC(=O)CSc1nc2ccccc2c(=O)n1CC(C)C | 4.2 µg/mL (≈ 13.1 µM)
CC(C)(C)C1CCC(OC(=O)CN2CCCCC2)CC1 (stereo not given) | 2.4 µg/mL (≈ 8.53 µM)
Cc1ccccc1Cn1c(-c2ccc(=O)[nH]c2)nc2ccccc21 | 27.8 µg/mL (≈ 88.1 µM)
Cn1c(N)c(C(=O)COC(=O)/C=C/c2ccccc2F)c(=O)n(C)c1=O | 5.5 µg/mL (≈ 15.2 µM)
O=C(Cc1ccccc1)NCC(=O)Nc1cccc(Cl)c1 | 10 µg/mL (≈ 33 µM)

SMILES | solubility kinetic
CCN1C(=O)c2cccc3c(S(=O)(=O)N(C(C)=O)c4ccc(OC(C)=O)cc4)ccc1c23 | 4.3 µg/mL (≈ 9.5 µM)
COc1ccc(NC(=O)c2ccc(NC(=O)CN3CCC(C(N)=O)CC3)cc2)cc1 | 8.1 µg/mL (≈ 19.7 µM)
COc1ccc(CN(C)C2CCN(C)CC2)cc1OC | 38.3 µg/mL (≈ 138 µM)
O=C1ON=C(c2ccccc2)/C1=C/c1ccc(O)cc1 | > 39.8 µg/mL
COc1ccc(CN2CCCCCC2)cc1Br | 43.3 µg/mL (≈ 145 µM)
NC(=O)C1CCN(c2oc(-c3cccs3)nc2S(=O)(=O)c2ccc(Br)cc2)CC1 | 17.6 µg/mL (≈ 35.5 µM)
Cc1ccc2sc(N(CCN(C)C)C(=O)c3ccc4ccccc4c3)nc2c1C.Cl | 0.8 µg/mL
COCCNCC(=O)Nc1ccc(OC(F)(F)F)cc1.Cl | 48.8 µg/mL
Cc1cccc(OCC(=O)Nc2ccncc2)c1 | > 36.3 µg/mL
CNc1nc2c(Cl)cc(Cl)cc2s1 | < 0.2 µg/mL
CS(=O)(=O)N(CC(=O)N1CCOCC1)c1cccc([N+](=O)[O-])c1 | > 51.5 µg/mL
Cc1c(C=Nc2ccc(S(=O)(=O)CCO)cc2)c(O)[nH]c(=O)c1C#N | > 54.2 µg/mL
Nc1cccc(C(=O)O)c1 | > 20.6 µg/mL
COc1cc(C2C(C#N)=C(N)OC3=C2C(=O)CC(C)(C)C3)cc2c1OCO2 (stereo not given) | 21.6 µg/mL (≈ 58.6 µM)
O=C(c1cc2cc(Br)ccc2[nH]1)N1CCc2ccccc21 | < 0.4 µg/mL
COc1ccccc1Cn1c(=S)[nH]c2ccccc2c1=O | 0.5 µg/mL (≈ 1.68 µM)
CNc1snc(C)c1C(=O)OCC(=O)NCc1ccccc1OC | 3.8 µg/mL (≈ 10.9 µM)
Cc1ccc(NC(=S)NCCSc2ccc(Cl)cc2)cc1 | < 0.4 µg/mL
CC(C)=Cc1oc2ccc([N+](=O)[O-])cc2c1N1CCOCC1 | < 0.3 µg/mL
